Experimental data taken from US11350582B2, “Plant varieties by application of endocides” (Stephen F. Austin State University, priority 2015, dated 2022).
Where two headings read alike, the source gives them in different places.

Legend:
S. molesta = assay: Phytotoxic analysis by pipet application on upper or lower leaf surface; type: in vivo, Salvinia molesta; conditions: for pest or weed control at 1 %: Salvinia molesta, topical, 72 h; for activity on upper or lower leaf surface applications: 1% solution, 72 hrs
Procedure: General Experimental Procedure: 4-Hydroxybenzoic and 3,4-dihydroxybenzoic acids and 14 of their analogs were purchased commercially. Each of 16 compounds were prepared as 5 mL experimental solutions with NANOPURE™ water at 1% concentration. A total of 102 healthy and untreated living type III plants of S. molesta (approximately 10 g in fresh weight each) were cultured and tested in 17 plastic containers (23×23 cm, 2.37 L) with six plants in each container in a greenhouse (30° C. during the day time and 20° C. at night). The first container served as the controls without any treatment, the plants in each of the other 16 containers were treated by one of the 16 testing compounds, respectively. The plants in each container were randomly classified into two groups evenly. For each plant in the first group, 10 μL of 1% experimental solution was applied by pipet on the upper surface of each blade of the six pairs of large floating leaves close to the terminal bud. For each plant in the second group, 10 μL of 1% experimental solution was applied by pipet on the lower surface of each blade of the six pairs of large floating leaves close to the terminal bud. The leaf surfaces were examined for damage and analyzed 72 hrs after the treatments.

Salvinia molesta = assay: Greenhouse spray test on giant salvinia, living biomass; type: in vivo; conditions: 10 mL spray on three type III plants per container, day nine
Procedure: General Experimental Procedure: Observations of giant salvinia growth in a greenhouse were performed under 28 different treatment conditions and control conditions with NANOPURE™ water or 0.5% DYNE-AMIC® (methyl esters of C16-C18 fatty acids, polyalkyleneoxide modified polydimethylsiloxane, and alkylphenol ethoxylate 99%, (Helena, Collierville, Tenn., United States)) (v:v).
Materials—4-hydroxybenzoic acid (>95%, HPLC analysis) and 3,4-dihydroxybenzoic acid (>95%) were isolated from S. molesta matter using the method as described in (Li, Wang et al. 2013). Ethylparaben (>99%) was purchased from a commercial source. Each of 4-hydroxybenzoic acid, 3,4-dihydroxybenzoic acid, and ethylparaben were prepared as 50 mL experimental solutions with NANOPURE™ water at the concentration of 0.5, 1.0, 1.5, and 2.0%, respectively. 0.5, 1.0, 1.5, and 2.0% 4-hydroxybenzoic acid, 3,4-dihydroxybenzoic acid, and ethylparaben with 0.5% surfactant DYNE-AMIC® was also prepared as 50 mL experimental solutions with NANOPURE™ water. Mixtures of 4-hydroxybenzoic acid with 3,4-dihydroxybenzoic acid (2:1, w:w) were prepared as 50 mL experimental solutions with NANOPURE™ water at the total concentration of 0.5, 1.0, and 1.5%, respectively. 3,4-dihydroxybenzoic acid was mixed with ethylparaben (2:1, w:w) and prepared as 50 mL experimental solution with NANOPURE™ water at the total concentration of 0.5, 1.0, and 1.5%, respectively.
Bioassay—For each treatment, a total of nine healthy and untreated living plants of S. molesta (type III, the biomass of three plants weighs approximately 10 g) were cultured in tap water in three plastic containers severing as three replications (14×15 cm, 0.68 L) with three plants each in a greenhouse (30° C. during the day time and 20° C. at night). The three plants in each of the three containers per treatment were sprayed with 10 mL NANOPURE™ water, 0.5% DYNE-AMIC®, or the experimental solution. Plant growth and survival status were documented and photographed in each treatment on day nine after the treatment. Pairwise comparisons for all treatments (including Control) in living biomass were made using Tukey test at alpha=0.05, which was done using SAS (SAS 9.4).

[1] = 10 μL of 1% solution per blade, lower surface, read-out: Inhibition (%) Lower leaf Application
[2] = 10 μL of 1% solution per blade, upper surface, read-out: Inhibition (%) Upper leaf Application
[3] = read-out: Inhibition (%) Lower leaf Application, 10 μL of 1% solution per blade, lower surface
[4] = read-out: Inhibition (%) Upper leaf Application, 10 μL of 1% solution per blade, upper surface

Row | SMILES | pest or weed control at 1 % (S. molesta; [1]) | pest or weed control at 1 % (S. molesta; [2]) | other results
1 | O=C(O)c1ccc(O)c(O)c1O [2,3,4-Trihydroxybenzoic acid] | 11.1% | 44.5% | –
2 | O=C(O)c1cccc(O)c1O [2,3-Dihydroxybenzoic acid] | 100% | > 85% | –
3 | O=C(O)c1c(O)cc(O)cc1O [2,4,6-Trihydroxybenzoic acid] | 11.1% | 0% | activity on upper or lower leaf surface applications (S. molesta): did not show any activities
4 | O=C(O)c1ccc(O)cc1O [2,4-Dihydroxybenzoic acid] | 72.2% | > 85% | –
5 | O=C(O)c1cc(O)ccc1O [2,5-Dihydroxybenzoic acid] | 11.1% | 52.8% | –
6 | O=C(O)c1c(O)cccc1O [2,6-Dihydroxybenzoic acid] | 25% | 44.4% | –
7 | O=C(O)c1ccccc1O [2-Hydroxybenzoic acid] | 100% | > 85% | –
8 | O=C(O)c1cc(O)c(O)c(O)c1 [3,4,5-Trihydroxybenzoic acid] | 0% | 0% | activity on upper or lower leaf surface applications (S. molesta): did not show any activities
9 | O=C(O)c1cc(O)cc(O)c1 [3,5-Dihydroxybenzoic acid] | 0% | 0% | activity on upper or lower leaf surface applications (S. molesta): did not show any activities
10 | O=C(O)c1cccc(O)c1 [3-Hydroxybenzoic acid] | 66.7% | 36.1% | –
11 | O=C(O)c1ccccc1 [Benzoic acid] | – | – | pest or weed control at 1 % (S. molesta; [3]): 100%; pest or weed control at 1 % (S. molesta; [4]): > 85%
12 | CCOC(=O)c1ccc(O)cc1 [Ethylparaben, reference compound] | – | – | Living Biomass (mean ± s.d.) (Salvinia molesta; total concentration 0.5%): 18.6 g; Living Biomass (mean ± s.d.) (Salvinia molesta; total concentration 1.0%): 18.7 g; Living Biomass (mean ± s.d.) (Salvinia molesta; total concentration 1.5%): 12.9 g; Living Biomass (mean ± s.d.) (Salvinia molesta; total concentration 2.0%): 13.5 g
13 | O=C(O)c1ccncc1 [Isonicotinic acid] | 33.3% | 44.5% | –
14 | O=C(O)c1cccnc1 [Nicotinic acid] | 0% | 0% | activity on upper or lower leaf surface applications (S. molesta): did not show any activities
15 | O=C(O)COc1ccccc1 [Phenoxyacetic acid] | – | – | pest or weed control at 1 % (S. molesta; [3]): 16.7%; pest or weed control at 1 % (S. molesta; [4]): 77.8%
